Measurements as given in PMC11487561 (ACS Chemical Neuroscience, 2024).

Key:
CYP 1A2 = target: T1, CYP 1A2 (Homo sapiens, UniProt P05177); test: P450 inhibition in pooled human liver microsomes; format: in vitro ADME; conditions: pooled HLM, NADPH, CYP-specific probe substrates
T1 construct: from tissue; host or cells: pooled human liver microsomes (according to the earlier reading)

Opiate μ (OP3, MOP) = Opiate μ (OP3, MOP) (Homo sapiens, UniProt P35372); test: Lead Profiling Screen – Eurofins Panlabs; format: binding; conditions: read-out: % inh at 10 μM
Adrenergic β2 = target: T2, Adrenergic β2 (Homo sapiens, UniProt P07550); test: Lead Profiling Screen – Eurofins Panlabs; format: binding; conditions: read-out: % inh at 10 μM
T2 construct: Eurofins Panlabs (contract screen)

Adrenergic α2A = target: T3, Adrenergic α2A (Homo sapiens, UniProt P08913); test: Lead Profiling Screen – Eurofins Panlabs; format: binding; conditions: read-out: % inh at 10 μM
T3 construct: Eurofins Panlabs (contract screen)

Estrogen ERα = target: T4, Estrogen ERα (Homo sapiens, UniProt P03372); test: Lead Profiling Screen – Eurofins Panlabs; format: binding; conditions: read-out: % inh at 10 μM
T4 construct: Eurofins Panlabs (contract screen)

GABAB1A = target: T5, GABAB1A (Homo sapiens, UniProt Q9UBS5); test: Lead Profiling Screen – Eurofins Panlabs; format: binding; conditions: read-out: % inh at 10 μM
T5 construct: Eurofins Panlabs (contract screen)

Calcium Channel N-Type = target: T6, Calcium Channel N-Type (Rattus norvegicus, UniProt Q02294); test: Lead Profiling Screen – Eurofins Panlabs; format: binding; conditions: read-out: % inh at 10 μM
T6 construct: Eurofins Panlabs (contract screen)

[1] = target: Transporter, Serotonin (5-Hydroxytryptamine) (SERT) (Homo sapiens, UniProt P31645); test: Lead Profiling Screen – Eurofins Panlabs; format: binding; conditions: read-out: % inh at 10 μM
Glutamate, Kainate = test: Lead Profiling Screen – Eurofins Panlabs; format: binding, rat
Adenosine A3 = target: T7, Adenosine A3 (Homo sapiens, UniProt P0DMS8); test: Lead Profiling Screen – Eurofins Panlabs; format: binding; conditions: read-out: % inh at 10 μM
T7 construct: Eurofins Panlabs

In vivo dog iv/po PK = test: In vivo dog iv/po PK
Method: Intravenous pharmacokinetics and plasma-brain level determination (IV PK PBL) VU6016235 […]
For dog PK, VU6016235 was formulated in 10% (2-Hydroxypropyl)-beta-cyclodextrin (HPbCD) at a concentration of 0.5 mg/ml and administered as a single dose of 0.5 mg/kg to male beagles (1 ml/kg, n=3).
Blood samples were collected serially from a surgically implanted carotid artery catheter in each animal over multiple post-administration time points (0.033, 0.117, 0.25, 0.5, 1, 2, 4, 7, and 24 hours) into chilled, K2EDTA anticoagulant-fortified tubes and immediately placed on wet ice. […]
over multiple post-administration time points (0.25, 0.5, 1, 2, 4, 7, and 24 hours) into chilled, K2EDTA anticoagulant-fortified tubes and immediately placed on wet ice. The blood samples were then centrifuged (1700 rcf, 5 minutes, 4 °C) in order to obtain plasma samples, which were stored at -80 °C until analysis […]
Samples preparation for bioanalysis
Plasma samples from the in-life phase of the study were thawed at ambient temperature (benchtop), and then aliquots (20 µL per sample) were transferred to a 96-shallow-well (V-bottom) plate. Matrix-matched quality control (QC) samples and a standard curve of […] (1 mg/mL DMSO stock solution) were prepared in blank rat plasma (K2EDTA-treated) or blank brain homogenate via serial dilution and transferred (20 µL each) to the plate along with multiple blank plasma and brain homogenate samples. Acetonitrile (120 µL) containing IS (10 nM carbamazepine) was added to each well of the plate to precipitate protein. The plate was then centrifuged (4000 rcf, 5 minutes, ambient temperature), and resulting supernatants (60 µL each) were transferred to a new 96-shallow-well (V-bottom) plate containing an equal volume (60 µL per well) of water (Milli-Q purified). […]
The plasma standard curve and QCs were used for compounds quantitation in brain.
Binding in plasma from rat and human.
Determination of compounds’ fraction unbound (f u) in plasma from rat and human was conducted in vitro via equilibrium dialysis using HTDialysis membrane plates. Dialysis membranes (four paired strips per HTD assay) were hydrated as described by the manufacturer and inserted into the HTD plate, which was assembled and prepared for sample addition by the dispensing of blank buffer (DPBS, 100 µL/well) into the ‘top half’ of each membrane-split well. Each compound was diluted into plasma from each species (5 µM final concentration), which was aliquoted in triplicate to the ‘bottom half’ of the prepared HTD plate wells. The HTD plate was sealed and incubated for 6 hours at 37 °C. Following incubation, each well (both top and bottom halves) were transferred (20 µL) to the corresponding wells of a 96-shallow-well (V-bottom) plate. The daughter plates were then matrix-matched (buffer side wells received equal volume of plasma, and plasma side wells received equal volume of buffer), and extraction solution (120 µL; acetonitrile containing 50 nM carbamazepine as IS) was added to all wells of both daughter plates to precipitate protein and extract test article. The plates were then sealed and centrifuged (3500 rcf) for 10 minutes at ambient temperature. Supernatant (60 µL) from each well of the daughter plates was then transferred to the corresponding wells of new daughter plates (96-shallow-well, V bottom) containing water (Milli-Q, 60 µL/well), and the plates were sealed in preparation for LC-MS/MS analysis (see below). fu was calculated as (analyte to IS MS peak area ratio from Trans-buffer side) / (analyte to IS MS peak area ratio from Cis-plasma side). Mean values for each species were calculated from 3 replicates.

Thyroid Hormone = test: Lead Profiling Screen – Eurofins Panlabs; format: binding, rat
[2] = system: Glutamate, NMDA, Phencyclidine; test: Lead Profiling Screen – Eurofins Panlabs; format: binding, rat
Purinergic P2X = test: Lead Profiling Screen – Eurofins Panlabs; format: binding, rabbit
Adenosine A2A = target: T8, Adenosine A2A (Homo sapiens, UniProt P29274); test: Lead Profiling Screen – Eurofins Panlabs; format: binding; conditions: read-out: % inh at 10 μM
T8 construct: Eurofins Panlabs

Dopamine D3 = target: T9, Dopamine D3 (Homo sapiens, UniProt P35462); test: Lead Profiling Screen – Eurofins Panlabs; format: binding; conditions: read-out: % inh at 10 μM
T9 construct: Eurofins Panlabs (contract screen)

human M5 = human M5 (Homo sapiens, UniProt P08912); test: Calcium mobilization assay, muscarinic selectivity; format: cell-based
Imidazoline I2, Central = test: Lead Profiling Screen – Eurofins Panlabs; format: binding, rat
Histamine H2 = Histamine H2 (Homo sapiens, UniProt P25021); test: Lead Profiling Screen – Eurofins Panlabs; format: binding; conditions: read-out: % inh at 10 μM
Prostanoid EP4 = Prostanoid EP4 (Homo sapiens, UniProt P35408); test: Lead Profiling Screen – Eurofins Panlabs; format: binding; conditions: read-out: % inh at 10 μM
Adenosine A1 = target: T10, Adenosine A1 (Homo sapiens, UniProt P30542); test: Lead Profiling Screen – Eurofins Panlabs; format: binding; conditions: read-out: % inh at 10 μM
T10 construct: Eurofins Panlabs

GABAA, Muscimol, Central = test: Lead Profiling Screen – Eurofins Panlabs; format: binding, rat
[3] = male, plasma, dog (beagle), iv 0.5 mg/kg
[4] = male, plasma, dog (beagle), po 1.0 mg/kg, fasted

Chain of human M5 (P08912 whole entry): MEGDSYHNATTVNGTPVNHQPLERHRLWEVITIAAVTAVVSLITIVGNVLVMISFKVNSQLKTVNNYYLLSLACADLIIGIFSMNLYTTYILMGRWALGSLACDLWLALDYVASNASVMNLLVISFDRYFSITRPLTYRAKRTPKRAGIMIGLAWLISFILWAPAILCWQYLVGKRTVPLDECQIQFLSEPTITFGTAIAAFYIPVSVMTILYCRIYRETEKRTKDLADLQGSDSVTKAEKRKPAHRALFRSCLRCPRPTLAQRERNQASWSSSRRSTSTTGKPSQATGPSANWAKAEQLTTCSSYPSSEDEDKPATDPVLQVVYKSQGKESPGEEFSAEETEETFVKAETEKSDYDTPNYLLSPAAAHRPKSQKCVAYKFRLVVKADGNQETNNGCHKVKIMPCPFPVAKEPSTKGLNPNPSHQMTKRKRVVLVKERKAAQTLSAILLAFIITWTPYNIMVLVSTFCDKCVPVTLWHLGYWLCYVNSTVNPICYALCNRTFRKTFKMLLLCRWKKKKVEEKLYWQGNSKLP
T4 sequence (P03372 whole entry): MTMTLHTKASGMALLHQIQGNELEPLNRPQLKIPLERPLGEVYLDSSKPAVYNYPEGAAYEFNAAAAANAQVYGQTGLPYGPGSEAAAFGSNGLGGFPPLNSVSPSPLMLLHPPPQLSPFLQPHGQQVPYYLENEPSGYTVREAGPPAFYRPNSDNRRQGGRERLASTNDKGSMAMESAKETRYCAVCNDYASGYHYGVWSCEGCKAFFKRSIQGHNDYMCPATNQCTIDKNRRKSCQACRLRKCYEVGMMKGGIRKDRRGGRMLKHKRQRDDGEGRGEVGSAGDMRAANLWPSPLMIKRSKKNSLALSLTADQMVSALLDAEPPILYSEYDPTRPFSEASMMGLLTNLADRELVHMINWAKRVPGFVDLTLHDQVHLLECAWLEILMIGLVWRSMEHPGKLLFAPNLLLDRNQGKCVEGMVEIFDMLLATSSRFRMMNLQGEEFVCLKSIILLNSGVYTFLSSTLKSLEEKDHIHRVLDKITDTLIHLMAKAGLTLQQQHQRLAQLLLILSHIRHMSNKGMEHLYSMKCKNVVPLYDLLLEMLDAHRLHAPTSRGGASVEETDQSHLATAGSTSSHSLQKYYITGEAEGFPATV
T3 sequence (P08913 whole entry): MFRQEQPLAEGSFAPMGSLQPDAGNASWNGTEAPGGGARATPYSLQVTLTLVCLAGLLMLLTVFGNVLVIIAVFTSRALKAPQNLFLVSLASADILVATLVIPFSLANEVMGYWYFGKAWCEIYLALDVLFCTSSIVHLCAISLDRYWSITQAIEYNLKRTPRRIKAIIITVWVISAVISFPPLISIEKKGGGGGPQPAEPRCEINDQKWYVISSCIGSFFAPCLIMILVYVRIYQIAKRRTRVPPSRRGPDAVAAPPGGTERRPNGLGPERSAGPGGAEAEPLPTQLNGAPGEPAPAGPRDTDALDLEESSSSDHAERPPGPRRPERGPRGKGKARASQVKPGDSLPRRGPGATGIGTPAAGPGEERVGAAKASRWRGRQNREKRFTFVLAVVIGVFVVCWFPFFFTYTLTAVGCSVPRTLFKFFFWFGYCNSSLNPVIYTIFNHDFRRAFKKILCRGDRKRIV
T7 sequence (P0DMS8 whole entry): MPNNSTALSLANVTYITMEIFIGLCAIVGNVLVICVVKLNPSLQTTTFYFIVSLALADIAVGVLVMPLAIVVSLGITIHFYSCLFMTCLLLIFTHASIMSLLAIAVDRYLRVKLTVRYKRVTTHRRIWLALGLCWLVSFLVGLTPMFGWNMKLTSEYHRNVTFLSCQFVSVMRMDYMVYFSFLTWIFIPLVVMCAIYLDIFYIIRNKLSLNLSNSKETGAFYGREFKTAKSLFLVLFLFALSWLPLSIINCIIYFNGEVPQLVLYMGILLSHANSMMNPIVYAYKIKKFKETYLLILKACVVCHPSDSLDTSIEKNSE
Chain of Histamine H2 (P25021 whole entry): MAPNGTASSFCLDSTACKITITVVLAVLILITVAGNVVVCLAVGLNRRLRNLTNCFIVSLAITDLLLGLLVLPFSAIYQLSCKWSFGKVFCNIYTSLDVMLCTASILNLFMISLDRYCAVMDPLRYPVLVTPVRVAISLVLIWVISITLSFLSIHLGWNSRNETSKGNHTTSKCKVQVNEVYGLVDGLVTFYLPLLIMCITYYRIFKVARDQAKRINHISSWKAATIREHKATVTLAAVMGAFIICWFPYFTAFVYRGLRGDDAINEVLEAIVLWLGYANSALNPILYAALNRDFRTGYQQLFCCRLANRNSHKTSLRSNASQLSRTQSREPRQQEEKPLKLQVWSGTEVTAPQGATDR
Chain of Opiate μ (OP3, MOP) (P35372 whole entry): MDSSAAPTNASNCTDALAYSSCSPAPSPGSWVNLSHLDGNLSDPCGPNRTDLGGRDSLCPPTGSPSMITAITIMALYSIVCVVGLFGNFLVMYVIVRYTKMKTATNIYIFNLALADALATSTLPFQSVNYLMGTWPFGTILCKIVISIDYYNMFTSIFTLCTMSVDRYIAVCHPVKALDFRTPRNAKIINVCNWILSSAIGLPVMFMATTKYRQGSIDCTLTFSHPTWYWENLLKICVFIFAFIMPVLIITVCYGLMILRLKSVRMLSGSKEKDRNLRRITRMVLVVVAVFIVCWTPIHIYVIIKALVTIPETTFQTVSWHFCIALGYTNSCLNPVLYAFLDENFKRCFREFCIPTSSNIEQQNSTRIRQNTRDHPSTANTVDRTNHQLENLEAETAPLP
Chain of Prostanoid EP4 (P35408 whole entry): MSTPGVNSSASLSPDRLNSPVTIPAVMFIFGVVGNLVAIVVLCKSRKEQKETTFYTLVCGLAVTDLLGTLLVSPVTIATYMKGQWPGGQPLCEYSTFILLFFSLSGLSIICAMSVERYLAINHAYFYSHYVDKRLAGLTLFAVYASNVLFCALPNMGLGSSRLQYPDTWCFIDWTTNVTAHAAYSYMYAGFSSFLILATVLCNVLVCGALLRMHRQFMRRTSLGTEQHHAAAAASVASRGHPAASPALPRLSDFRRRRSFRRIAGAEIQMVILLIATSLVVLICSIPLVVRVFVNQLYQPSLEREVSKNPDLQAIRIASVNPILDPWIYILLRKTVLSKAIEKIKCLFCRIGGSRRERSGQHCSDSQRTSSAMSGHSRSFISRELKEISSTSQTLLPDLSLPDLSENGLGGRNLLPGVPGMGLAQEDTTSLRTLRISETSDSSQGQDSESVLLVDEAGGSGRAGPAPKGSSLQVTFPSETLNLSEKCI
Chain of Transporter, Serotonin (5-Hydroxytryptamine) (SERT) (P31645 whole entry): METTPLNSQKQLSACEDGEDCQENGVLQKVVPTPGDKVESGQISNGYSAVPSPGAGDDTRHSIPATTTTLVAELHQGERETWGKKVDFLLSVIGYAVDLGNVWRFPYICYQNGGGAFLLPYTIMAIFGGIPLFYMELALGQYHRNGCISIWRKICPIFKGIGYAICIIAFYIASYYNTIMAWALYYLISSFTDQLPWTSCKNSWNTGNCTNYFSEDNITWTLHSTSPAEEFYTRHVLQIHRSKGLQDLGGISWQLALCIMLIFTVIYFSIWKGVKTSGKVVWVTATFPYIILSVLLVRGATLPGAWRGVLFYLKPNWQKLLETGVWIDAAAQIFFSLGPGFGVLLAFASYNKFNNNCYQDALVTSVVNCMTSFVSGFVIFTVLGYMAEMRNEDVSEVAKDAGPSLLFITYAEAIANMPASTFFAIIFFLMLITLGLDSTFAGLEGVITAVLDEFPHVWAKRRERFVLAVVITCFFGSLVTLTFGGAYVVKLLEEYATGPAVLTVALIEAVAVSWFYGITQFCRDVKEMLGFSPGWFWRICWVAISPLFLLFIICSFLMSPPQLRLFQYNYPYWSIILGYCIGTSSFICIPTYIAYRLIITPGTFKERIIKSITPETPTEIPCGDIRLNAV
T2 sequence (P07550 whole entry): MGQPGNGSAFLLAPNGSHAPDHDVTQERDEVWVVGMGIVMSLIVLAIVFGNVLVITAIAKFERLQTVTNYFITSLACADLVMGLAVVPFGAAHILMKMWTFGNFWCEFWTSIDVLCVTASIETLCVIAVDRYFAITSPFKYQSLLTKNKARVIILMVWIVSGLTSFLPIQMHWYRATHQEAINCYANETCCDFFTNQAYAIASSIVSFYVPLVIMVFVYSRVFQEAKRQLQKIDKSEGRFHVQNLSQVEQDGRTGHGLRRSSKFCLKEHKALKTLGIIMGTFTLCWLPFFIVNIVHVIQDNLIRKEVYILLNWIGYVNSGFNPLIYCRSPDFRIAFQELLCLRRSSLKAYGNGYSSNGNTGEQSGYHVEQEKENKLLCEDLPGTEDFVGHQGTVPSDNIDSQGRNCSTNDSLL
T8 sequence (P29274 whole entry): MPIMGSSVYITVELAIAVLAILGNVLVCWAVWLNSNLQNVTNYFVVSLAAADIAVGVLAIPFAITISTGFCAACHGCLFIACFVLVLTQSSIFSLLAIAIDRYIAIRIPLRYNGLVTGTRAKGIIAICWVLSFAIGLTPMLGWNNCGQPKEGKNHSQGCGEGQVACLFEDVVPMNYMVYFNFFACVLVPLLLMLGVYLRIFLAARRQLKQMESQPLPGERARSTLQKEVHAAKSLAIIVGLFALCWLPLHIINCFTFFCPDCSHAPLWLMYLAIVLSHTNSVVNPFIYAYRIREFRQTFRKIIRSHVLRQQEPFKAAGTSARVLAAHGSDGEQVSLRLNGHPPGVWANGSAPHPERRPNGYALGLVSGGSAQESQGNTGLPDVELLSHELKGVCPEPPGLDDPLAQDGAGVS
T10 sequence (P30542 whole entry): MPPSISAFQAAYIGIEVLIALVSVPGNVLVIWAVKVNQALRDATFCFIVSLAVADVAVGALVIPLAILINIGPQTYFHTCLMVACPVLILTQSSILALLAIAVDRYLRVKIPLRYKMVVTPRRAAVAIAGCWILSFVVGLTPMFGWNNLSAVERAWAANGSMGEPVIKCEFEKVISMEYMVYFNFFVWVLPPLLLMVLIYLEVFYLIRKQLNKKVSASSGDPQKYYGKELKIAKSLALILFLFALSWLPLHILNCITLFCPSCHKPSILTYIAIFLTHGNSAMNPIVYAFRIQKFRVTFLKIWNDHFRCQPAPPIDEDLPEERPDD

Cc1nc(C)c2c(n1)sc1c(NCc3ccc(C(C)(C)O)cc3)nccc12 [22g] gave an IC50 (CYP 1A2) of 23 µM, an inhibition at 10 µM (Opiate μ (OP3, MOP)) of 7% and an inhibition at 10 µM (Adrenergic β2) of -5%. It also gave an inhibition at 10 µM (Adrenergic α2A) of -9%, an inhibition at 10 µM (Estrogen ERα) of -8% and an inhibition at 10 µM (GABAB1A) of 6%. For the same molecule, the inhibition at 10 µM (Calcium Channel N-Type) was 2%, the inhibition at 10 µM [1] was 1% and the “% inh at 10 μM” value (Glutamate, Kainate) was -8%. For the same molecule, the inhibition at 10 µM (Adenosine A3) was 22%, the “plasma clearance as % hepatic blood flow” value (In vivo dog iv/po PK; dog) was ~78 % hepatic blood flow and the CLp (In vivo dog iv/po PK; dog (beagle), iv 0.5 mg/kg, listed as VU6016235, 0.5 mg/kg) was 23.8 mL/min/kg. It also gave a clearance (In vivo dog iv/po PK; male, beagle, dog, plasma, iv, 0.5 mg/kg, dog (beagle), iv 0.5 mg/kg, read-out: CLp) of ~24 mL/min/kg, an MRT (In vivo dog iv/po PK; [3]) of 1.6 h and a half-life (In vivo dog iv/po PK; [3]) of 2.4 h. The Vd (In vivo dog iv/po PK; male, plasma, dog (beagle), iv 0.5 mg/kg, read-out: Vss) was 2.3 L/kg, the AUC(0-inf) (In vivo dog iv/po PK; [4]) was 200 ng·h/mL and the Cmax (In vivo dog iv/po PK; [4]) was 62.4 ng/mL. For the same molecule, the Tmax (In vivo dog iv/po PK; [4]) was 0.83 h, the bioavailability (In vivo dog iv/po PK; [4]) was 27.5% and the “% inh at 10 μM” value (Thyroid Hormone) was 1%. For the same molecule, the “% inh at 10 μM” value [2] was -2%, the “% inh at 10 μM” value (Purinergic P2X) was 0% and the inhibition at 10 µM (Adenosine A2A) was 28%. The inhibition at 10 µM (Dopamine D3) was 3%, the “human M5 %Ach Max” value (human M5) was “inactive” and the “human M5 EC50” value (human M5) was “inactive”. For the same molecule, the “% inh at 10 μM” value (Imidazoline I2, Central) was -1%, the inhibition at 10 µM (Histamine H2) was -17% and the inhibition at 10 µM (Prostanoid EP4) was 16%. The inhibition at 10 µM (Adenosine A1) was 6% and the “% inh at 10 μM” value (GABAA, Muscimol, Central) was 1%.
